From patent US20230303565A1, “PESTICIDALLY ACTIVE HETEROCYCLIC DERIVATIVES WITH SULFUR CONTAINING SUBSTITUENTS” (SYNGENTA CROP PROTECTION AG, priority 2020, published 2023)

What was measured:
Format in all cases: in vivo
[1] = tested on: Euschistus heros (Neotropical Brown Stink Bug); test: Activity against Euschistus heros (neotropical brown stink bug), soybean leaves on agar; settings: 120 h, application rate of 200 ppm, N2 nymphs, 5 days after infestation, in comparison to untreated samples, read-out: effect in at least one of the two categories (mortality or growth inhibition)
Method: Example B3: Activity Against Euschistus heros (Neotropical Brown Stink Bug)
Soybean leaves on agar in 24-well microtiter plates were sprayed with aqueous test solutions prepared from 10′000 ppm DMSO stock solutions. After drying the leaves were infested with N2 nymphs. The samples were assessed for mortality and growth inhibition in comparison to untreated samples 5 days after infestation.

[2] = tested on: Spodoptera littoralis (Egyptian Cotton Leaf Worm); test: Activity against Spodoptera littoralis (Egyptian cotton leaf worm), cotton leaf discs; settings: foliar, 72 h, application rate of 200 ppm, L1 larvae, 3 days after infestation, in comparison to untreated samples, read-out: control (at least one of mortality, anti-feedant effect, growth inhibition)
Method: Example B7: Activity Against Spodoptera littoralis (Egyptian Cotton Leaf Worm)
Cotton leaf discs were placed onto agar in 24-well microtiter plates and sprayed with aqueous test solutions prepared from 10′000 ppm DMSO stock solutions. After drying the leaf discs were infested with five L1 larvae. The samples were assessed for mortality, anti-feeding effect, and growth inhibition in comparison to untreated samples 3 days after infestation. Control of Spodoptera littoralis by a test sample is given when at least one of the categories mortality, anti-feedant effect, and growth inhibition is higher than the untreated sample.

[3] = tested on: Myzus persicae (Green Peach Aphid); test: Activity against Myzus persicae (green peach aphid), feeding/contact activity, sunflower leaf discs; settings: foliar, 144 h, application rate of 200 ppm, aphid population of mixed ages, 6 days after infestation
Method: Example B5: Activity Against Myzus persicae (Green Peach Aphid) Feeding/Contact Activity
Sunflower leaf discs were placed onto agar in a 24-well microtiter plate and sprayed with aqueous test solutions prepared from 10′000 ppm DMSO stock solutions. After drying, the leaf discs were infested with an aphid population of mixed ages. The samples were assessed for mortality 6 days after infestation.

[4] = tested on: Frankliniella occidentalis (Western Flower Thrips); test: Activity against Frankliniella occidentalis (western flower thrips), feeding/contact activity, sunflower leaf discs; settings: foliar, 168 h, application rate of 200 ppm, population of mixed ages, 7 days after infestation
Method: Example B4: Activity Against Frankliniella occidentalis (Western Flower Thrips) Feeding/Contact Activity
Sunflower leaf discs were placed on agar in 24-well microtiter plates and sprayed with aqueous test solutions prepared from […] stock solutions. After drying the leaf discs were infested with a Frankliniella population of mixed ages. The samples were assessed for mortality 7 days after infestation.

[5] = tested on: Plutella xylostella (Diamond Back Moth); test: Activity against Plutella xylostella (diamond back moth), artificial diet in 24-well plates; settings: 192 h, application rate of 200 ppm, Plutella eggs, 8 days after infestation, in comparison to untreated samples, read-out: effect in at least one of the two categories (mortality or growth inhibition)
Method: Example B6: Activity Against Plutella xylostella (Diamond Back Moth)
24-well microtiter plates with artificial diet were treated with aqueous test solutions prepared from 10′000 ppm DMSO stock solutions by pipetting. After drying, Plutella eggs were pipetted through a plastic stencil onto a gel blotting paper and the plate was closed with it. The samples were assessed for mortality and growth inhibition in comparison to untreated samples 8 days after infestation.

[6] = tested on: Carpocapsa (Cydia) Pomonella (Codling Moth); test: Activity against Carpocapsa (Cydia) pomonella (codling moth), larvicide, feeding/contact, diet cubes; settings: 336 h, application rate of 12.5 ppm, L1 larvae, 14 days after infestation, 26-27° C.
Method: Example B9: Activity Against Carpocapsa (Cydia) Pomonella (Codling Moth)) Larvicide, Feeding/Contact
Diet cubes coated with paraffin were sprayed with diluted test solutions in an application chamber. After drying off the treated cubes (10 replicates) were infested with 1 L1 larvae. Samples were incubated at 26-27° C. and checked 14 days after infestation for mortality and growth inhibition.

[7] = tested on: Diabrotica Balteata (Corn Root Worm); test: Activity against Diabrotica balteata (corn root worm), maize sprouts on agar; settings: 96 h, application rate of 200 ppm, L2 larvae, 4 days after infestation, in comparison to untreated samples, read-out: effect in at least one of the two categories (mortality or growth inhibition)
Method: Example B2: Activity Against Diabrotica Balteata (Corn Root Worm)
Maize sprouts placed onto an agar layer in 24-well microtiter plates were treated with aqueous test solutions prepared from 10′000 ppm DMSO stock solutions by spraying. After drying, the plates were infested with L2 larvae (6 to 10 per well). The samples were assessed for mortality and growth inhibition in comparison to untreated samples 4 days after infestation.

[8] = tested on: Chilo suppressalis (Striped Rice Stemborer); test: Activity against Chilo suppressalis (striped rice stemborer), artificial diet in 24-well plates; settings: 144 h, application rate of 200 ppm, L2 larvae, 6 days after infestation, in comparison to untreated samples, read-out: control (at least one of mortality, anti-feedant effect, growth inhibition)
Method: Example B1: Activity Against Chilo suppressalis (Striped Rice Stemborer)
24-well microtiter plates with artificial diet were treated with aqueous test solutions prepared from 10′000 ppm DMSO stock solutions by pipetting. After drying, the plates were infested with L2 larvae (6-8 per well). The samples were assessed for mortality, anti-feeding effect, and growth inhibition in comparison to untreated samples 6 days after infestation. Control of Chilo suppressalis by a test sample is given when at least one of the categories mortality, anti-feedant effect, and growth inhibition is higher than the untreated sample.

[9] = tested on: Bemisia tabaci (Cotton White Fly); test: Activity against Bemisia tabaci (cotton white fly), cotton leaf discs; settings: foliar, 144 h, application rate of 200 ppm, adult white flies, 6 days after incubation
Method: Example B8: Activity Against Bemisia tabaci (Cotton White Fly)
Cotton leaf discs were placed on agar in 24-well microtiter plates and sprayed with aqueous test solutions prepared from 10′000 ppm DMSO stock solutions. After drying the leaf discs were infested with adult white flies. The samples were checked for mortality 6 days after incubation.

CCS(=O)(=O)c1c(N2Cc3ccc(C4(C#N)CC4)cc3C2=O)nc2ccc(C(F)(F)F)cn12 [P1, 1-[2-[3-ethylsulfonyl-6-(trifluoromethyl)imidazo[1,2-a]pyridin-2-yl]-3-oxo-isoindolin-5-yl]cyclopropanecarbonitrile]
≥ 80%: percent effect (mortality or growth inhibition) at 200 ppm [1] | percent control (mortality, anti-feedant effect or growth inhibition) at 200 ppm [2] | mortality at 200 ppm [3] | mortality at 200 ppm [4] | percent effect (mortality or growth inhibition) at 200 ppm [5] | mortality at 12.5 ppm [6] | percent effect (mortality or growth inhibition) at 200 ppm [7] | percent control (mortality, anti-feedant effect or growth inhibition) at 200 ppm [8]

CCS(=O)(=O)c1c(N2Cc3ncc(C4(C#N)CC4)cc3C2=O)nc2ccc(C(F)(F)F)cn12 [P2, 1-[6-[3-ethylsulfonyl-6-(trifluoromethyl)imidazo[1,2-a]pyridin-2-yl]-5-oxo-7H-pyrrolo[3,4-b]pyridin-3-yl]cyclopropanecarbonitrile]
≥ 80%: percent effect (mortality or growth inhibition) at 200 ppm [1] | percent control (mortality, anti-feedant effect or growth inhibition) at 200 ppm [2] | mortality at 200 ppm [3] | mortality at 200 ppm [4] | percent effect (mortality or growth inhibition) at 200 ppm [5] | mortality at 12.5 ppm [6] | percent effect (mortality or growth inhibition) at 200 ppm [7] | percent control (mortality, anti-feedant effect or growth inhibition) at 200 ppm [8]

CCS(=O)(=O)c1c(N2Cc3ccc(C4(C#N)CC4)cc3C2=O)nn2ccc(C(F)(F)F)cc12 [P3, 1-[2-[3-ethylsulfonyl-5-(trifluoromethyl)pyrazolo[1,5-a]pyridin-2-yl]-3-oxo-isoindolin-5-yl]cyclopropanecarbonitrile]
≥ 80%: mortality at 200 ppm [9] | percent control (mortality, anti-feedant effect or growth inhibition) at 200 ppm [2] | percent effect (mortality or growth inhibition) at 200 ppm [5] | percent effect (mortality or growth inhibition) at 200 ppm [7] | percent control (mortality, anti-feedant effect or growth inhibition) at 200 ppm [8]

CCS(=O)(=O)c1c(N2Cc3ccc(C4(C#N)CC4)cc3C2=O)nc2ccc(C(C)(F)F)cn12 [P4, 1-[2-[6-(1,1-difluoroethyl)-3-ethylsulfonyl-imidazo[1,2-a]pyridin-2-yl]-3-oxo-isoindolin-5-yl]cyclopropanecarbonitrile]
≥ 80%: mortality at 200 ppm [9] | percent control (mortality, anti-feedant effect or growth inhibition) at 200 ppm [2] | mortality at 200 ppm [3] | percent effect (mortality or growth inhibition) at 200 ppm [5] | mortality at 12.5 ppm [6] | percent effect (mortality or growth inhibition) at 200 ppm [7] | percent control (mortality, anti-feedant effect or growth inhibition) at 200 ppm [8]

CCS(=O)(=O)c1c(N2Cc3ccc(C4(C#N)CC4)cc3C2=O)nc2ccc(C3CC3)cn12 [P5, 1-[2-(6-cyclopropyl-3-ethylsulfonyl-imidazo[1,2-a]pyridin-2-yl)-3-oxo-isoindolin-5-yl]cyclopropanecarbonitrile]
≥ 80%: percent control (mortality, anti-feedant effect or growth inhibition) at 200 ppm [2] | percent effect (mortality or growth inhibition) at 200 ppm [5] | percent effect (mortality or growth inhibition) at 200 ppm [7] | percent control (mortality, anti-feedant effect or growth inhibition) at 200 ppm [8]

CCS(=O)(=O)c1c(N2Cc3ccc(C4(C#N)CC4)cc3C2=O)nc2ccc(C3(C#N)CC3)cn12 [P6, 1-[2-[6-(1-cyanocyclopropyl)-3-ethylsulfonyl-imidazo[1,2-a]pyridin-2-yl]-3-oxo-isoindolin-5-yl]cyclopropanecarbonitrile]
≥ 80%: mortality at 200 ppm [9] | percent control (mortality, anti-feedant effect or growth inhibition) at 200 ppm [2] | mortality at 200 ppm [3] | mortality at 200 ppm [4] | percent effect (mortality or growth inhibition) at 200 ppm [5] | mortality at 12.5 ppm [6] | percent effect (mortality or growth inhibition) at 200 ppm [7] | percent control (mortality, anti-feedant effect or growth inhibition) at 200 ppm [8]

CCS(=O)(=O)c1c(N2Cc3ccc(C4(C#N)CC4)cc3C2=O)nc2ccc(C(C)(C)C#N)cn12 [P7, 1-[2-[6-(1-cyano-1-methyl-ethyl)-3-ethylsulfonyl-imidazo[1,2-a]pyridin-2-yl]-3-oxo-isoindolin-5-yl]cyclopropanecarbonitrile]
≥ 80%: percent control (mortality, anti-feedant effect or growth inhibition) at 200 ppm [2] | percent effect (mortality or growth inhibition) at 200 ppm [5] | percent effect (mortality or growth inhibition) at 200 ppm [7] | percent control (mortality, anti-feedant effect or growth inhibition) at 200 ppm [8]

CCS(=O)(=O)c1c(N2Cc3ccc(S(=O)(=O)C4CC4)cc3C2=O)nc2ccc(C(F)(F)F)cn12 [P8, 6-cyclopropylsulfonyl-2-[3-ethylsulfonyl-6-(trifluoromethyl)imidazo[1,2-a]pyridin-2-yl]isoindolin-1-one]
≥ 80%: percent control (mortality, anti-feedant effect or growth inhibition) at 200 ppm [2] | mortality at 200 ppm [3] | percent effect (mortality or growth inhibition) at 200 ppm [5] | mortality at 12.5 ppm [6] | percent effect (mortality or growth inhibition) at 200 ppm [7] | percent control (mortality, anti-feedant effect or growth inhibition) at 200 ppm [8]

CCS(=O)(=O)c1c(N2Cc3ccc(OC(C)(C)C#N)cc3C2=O)nc2ccc(C(F)(F)F)cn12 [P9, 2-[2-[3-ethylsulfonyl-6-(trifluoromethyl)imidazo[1,2-a]pyridin-2-yl]-3-oxo-isoindolin-5-yl]oxy-2-methyl-propanenitrile]
≥ 80%: mortality at 200 ppm [9] | percent control (mortality, anti-feedant effect or growth inhibition) at 200 ppm [2] | mortality at 200 ppm [3] | percent effect (mortality or growth inhibition) at 200 ppm [5] | percent effect (mortality or growth inhibition) at 200 ppm [7] | percent control (mortality, anti-feedant effect or growth inhibition) at 200 ppm [8]

CCS(=O)(=O)c1c(N2Cc3cnc(C4CC4)cc3C2=O)nc2ccc(C(F)(F)F)cn12 [P10, 6-cyclopropyl-2-[3-ethylsulfonyl-6-(trifluoromethyl)imidazo[1,2-a]pyridin-2-yl]-3H-pyrrolo[3,4-c]pyridin-1-one]
≥ 80%: percent control (mortality, anti-feedant effect or growth inhibition) at 200 ppm [2] | percent effect (mortality or growth inhibition) at 200 ppm [5] | percent effect (mortality or growth inhibition) at 200 ppm [7] | percent control (mortality, anti-feedant effect or growth inhibition) at 200 ppm [8]

CCS(=O)(=O)c1c(N2Cc3ncc(C4CC4)cc3C2=O)nc2ccc(C(F)(F)F)cn12 [P11, 3-cyclopropyl-6-[3-ethylsulfonyl-6-(trifluoromethyl)imidazo[1,2-a]pyridin-2-yl]-7H-pyrrolo[3,4-b]pyridin-5-one]
≥ 80%: percent control (mortality, anti-feedant effect or growth inhibition) at 200 ppm [2] | percent effect (mortality or growth inhibition) at 200 ppm [5] | percent control (mortality, anti-feedant effect or growth inhibition) at 200 ppm [8]

CCS(=O)(=O)c1c(N2Cc3ccc(C4CC4)cc3C2=O)nc2ccc(C(F)(F)F)cn12 [P12, 6-cyclopropyl-2-[3-ethylsulfonyl-6-(trifluoromethyl)imidazo[1,2-a]pyridin-2-yl]isoindolin-1-one]
≥ 80%: percent control (mortality, anti-feedant effect or growth inhibition) at 200 ppm [2] | percent effect (mortality or growth inhibition) at 200 ppm [5] | percent effect (mortality or growth inhibition) at 200 ppm [7] | percent control (mortality, anti-feedant effect or growth inhibition) at 200 ppm [8]
